Reference: patent publication US6624143B1, “Calcium salts of lipopeptide antibiotics, method for producing same and their use” (Aventis Pharma Deutschland GmbH, priority 1998, dated 2003)
Counter-ions that a name gives are not always drawn. Like-named read-outs stand apart in the source and are kept apart here.

Columns and labels:
Type in all cases: cell-based
Enteroc. faecalis, DU18 = test: serial dilution test, MIC; conditions: tetR, novR
Text: (§1) Table 3: In-vitro activity of the A1437D Ca salt against Gram-positive bacteria in the serial dilution test indicated as the minimum inhibitory concentration (MIC)

Enteroc. faecalis, HM9 = test: serial dilution test, MIC; conditions: novR, vanR, eryR
Text: as §1

Enteroc. faecalis, UC5 = test: serial dilution test, MIC; conditions: ATCC 29212 novR
Text: as §1

Enteroc. faecium, AP9 = test: serial dilution test, MIC; conditions: vanR, teiR
Text: as §1

Enteroc. faecium, HM3 = test: serial dilution test, MIC; conditions: teiR, vanR, eryR
Text: as §1

Enteroc. faecium, HT12 = test: serial dilution test, MIC; conditions: teiR, vanR, eryR, tetR
Text: as §1

Enteroc. faecium, IP2 = test: serial dilution test, MIC; conditions: teiR, vanR, eryR, tetR
Text: as §1

[1] = system: Enteroc. gallinarium, HM8; test: serial dilution test, MIC; conditions: vanR, tetR
Text: as §1

Staph. aureus, 11CB20 = test: serial dilution test, MIC; conditions: Staphylococcus aureus, oxaR, eryR, tetR
Text: as §1

Staph. aureus, 11DU5 = test: serial dilution test, MIC; conditions: Staphylococcus aureus, novR, tetR
Text: as §1

Staph. aureus, 11GO64 = test: serial dilution test, MIC; conditions: Staphylococcus aureus, oflR, oxaR, eryR, novR
Text: as §1

Staph. aureus, 11HT1 = test: serial dilution test, MIC; conditions: Staphylococcus aureus, novR
Text: as §1

[2] = system: Staph. aureus, ATCC 13709; test: serial dilution test, MIC; conditions: Staphylococcus aureus, ATCC13709
Text: as §1

Staph. epidermidis, GO20 = test: serial dilution test, MIC; conditions: Staphylococcus epidermidis, tetR
Text: as §1

Staph. epidermidis, GO42 = test: serial dilution test, MIC; conditions: Staphylococcus epidermidis, oxaR
Text: as §1

Staphyloc. aureus, 11HT3 = test: serial dilution test, MIC; conditions: S
Text: as §1

[3] = system: Staphyloc. coagul. negativ; test: serial dilution test, MIC; conditions: oflR, oxaR, tetR
Text: as §1

Streptoc. gr. G, GOCB2 = test: serial dilution test, MIC; conditions: tetR, rifR, novR
Text: as §1

Streptoc. milleri, GR12 = test: serial dilution test, MIC; conditions: S
Text: as §1

Streptoc. mitis, GR16 = test: serial dilution test, MIC; conditions: eryR
Text: as §1

[4] = system: Streptoc. pneumoniae 30B12; test: serial dilution test, MIC; conditions: eryR
Text: as §1

[5] = system: Streptoc. pyogenes, A1F16; test: serial dilution test, MIC; conditions: eryR
Text: as §1

[6] = system: Streptoc. pyogenes, A1SJ1; test: serial dilution test, MIC; conditions: eryR
Text: as §1

monkey blood = conditions: rhesus monkey, 3 h
Experimental: For the measurement of hemolytic activity, freshly taken, venous human, Rhesus monkey or beagle dog blood is used. The blood is collected in heparinized tubes and distributed in aliquots of 200 μl into 12 polyethylene tubes. One aliquot is treated with 200 μl of distilled water and used as a 100% standard, another is mixed with 200 μl of physiological saline solution (0.9% NaCl). 200 μl each of substance dilutions in physiological saline solution to 1600, 800, 400, 200, 100, 50, 25, 12.5, 6.25 and 3.125 mg/l are distributed into the other tubes. All tubes are carefully swung and then incubated for 3 hours at 37° C. The 100% standard is then made up with 5 ml of distilled water, the other tubes with 5 ml each of physiological saline solution, and centrifuged at 700 g for 5 minutes.
The hemolysis is determined by measurement of the absorption of the supernatant in a spectrophotometer at a wavelength of 540 nm. The absorption of the standard with complete hemolysis is set at 100%. The absorption of the test preparation dilutions and of the 0% standard are measured and indicated as a percentage of the maximally inducible hemolysis.

With `CC(C)CCCCCCC/C=C\CC(=O)N[C@@H](CC(N)=O)C(=O)N[C@@H]1C(=O)N2CCCC[C@@H]2C(=O)N[C@@H]([C@H](C)C(=O)O)C(=O)N[C@@H](CC(=O)O)C(=O)NCC(=O)N[C@@H](CC(=O)O)C(=O)NCC(=O)N[C@H]([C@@H](C)N)C(=O)N[C@@H](C(C)C)C(=O)N2CCC[C@H]2C(=O)N[C@@H]1C` [A1437D Ca salt] the MIC (Enteroc. faecalis, DU18) was 0.6 µg/mL, the MIC (Enteroc. faecalis, HM9) was 2.5 µg/mL and the MIC (Enteroc. faecalis, UC5) was 2.5 µg/mL. The MIC (Enteroc. faecium, AP9) was 0.6 µg/mL, the MIC (Enteroc. faecium, HM3) was 0.6 µg/mL and the MIC (Enteroc. faecium, HT12) was 0.6 µg/mL. The MIC (Enteroc. faecium, IP2) was 0.6 µg/mL, the MIC [1] was 0.15 µg/mL and the MIC (Staph. aureus, 11CB20) was 0.6 µg/mL. For the same compound, the MIC (Staph. aureus, 11DU5) was 0.08 µg/mL, the MIC (Staph. aureus, 11GO64) was 0.6 µg/mL and the MIC (Staph. aureus, 11HT1) was 0.15 µg/mL. For the same compound, the MIC [2] was 0.6 µg/mL, the MIC (Staph. epidermidis, GO20) was 0.3 µg/mL and the MIC (Staph. epidermidis, GO42) was 0.3 µg/mL. For the same compound, the MIC (Staphyloc. aureus, 11HT3) was 0.04 µg/mL, the MIC [3] was 0.3 µg/mL and the MIC (Streptoc. gr. G, GOCB2) was 0.3 µg/mL. It also gave an MIC (Streptoc. milleri, GR12) of 0.3 µg/mL, an MIC (Streptoc. mitis, GR16) of 0.3 µg/mL and an MIC [4] of 0.3 µg/mL. For the same compound, the MIC [5] was 0.6 µg/mL, the MIC [6] was 0.6 µg/mL and the “in vitro hemolysis, percentage of the maximally inducible hemolysis” value (“in vitro hemolysis, percentage” below) (monkey blood; 12.5 mg/l) was 0%. For the same compound, the “in vitro hemolysis, percentage” value (monkey blood; 25 mg/l) was 0%, the “in vitro hemolysis, percentage” value (monkey blood; 50 mg/l) was 0% and the “in vitro hemolysis, percentage” value (monkey blood; 100 mg/l) was 3%. The “in vitro hemolysis, percentage” value (monkey blood; 200 mg/l) was 6%, the “in vitro hemolysis, percentage” value (monkey blood; 400 mg/l) was 9% and the “in vitro hemolysis, percentage” value (monkey blood; 800 mg/l) was 15%. The “in vitro hemolysis, percentage” value (monkey blood; 1600 mg/l) was 19%.
